Tests used:
[1] = Photophysical characterization (UV-Vis absorption, isomerization under blue light); type: physicochemical
Text: (§1) The Ziapin 2 molecule (FIG. 1a) in DMSO has a strong absorption peak centered at 470 nm (FIG. 1b) and a peak at 330nm, attributed respectively to the transitions n→Π* and Π→Π* of the E isomer. […] Azobenzene fluorescence is also an ideal tool for monitoring the switch behavior of photoreponsive materials, as well as the localization and photodynamics in living cells. The decrease of Ziapin 2 time-dependent fluorescence following exposure to blue light in DMSO solution (FIG. 1c) is related to the weakening of the photoluminescence of the E conformer due to the photoisomerization reaction. Time-dependent fluorescence measurements (FIG. 1d) indicate a clear “photo-switching” dynamics of azobenzene in living HEK293 cells, with estimated isomerization/relaxation degrees of 0.01 cm^2J^−1 and 0.0085s^−1. […] An analogous characterization was performed with the Ziapin 1 molecule (FIG. 1e,f).
The isomerization reaction for the compound NO2/1C6Py is not observed, since in this case the nitro-azobenzene having a push-pull configuration has a rapid thermal relaxation (>ns) which hinders the appearance of the absorption of the cis isomer in the investigated temporal regime (Bandara et al., Chem. Soc. Rev., 2012, 41, 1809-1825).

primary neurons [2] = experiment: Electrophysiology (current-clamp) on primary neurons under light stimulation; type: cell-based
Method: FIG. 6: electrophysiology conducted on HEK293 cells (a, b), primary neurons in the absence (c, d) or in the presence of synaptic blockers (e, f) treated with Ziapin 2 and under illumination. (a) Representative average current-clamp traces recorded from HEK293 cells incubated with DMSO 0.25% (v/v) (Ctrl; black line) or 25 μM Ziapin 2 in DMSO (gray line) and photostimulated for 20 ms (top) or 200 ms (bottom) (wavelength 470 nm, light power density of 47 mW/mm^2, shaded areas in gray). (b) Average hyperpolarization and subsequent depolarization in HEK293 cells. (c, d) Representative current-clamp traces of passive (hyperpolarization/depolarization, left) and active (action potentials, right) responses recorded from neurons incubated in DMSO 0.25% (v/v) (Ctrl; black line) or with 5 μM Ziapin 2 in DMSO (gray line) in the absence (c) or presence (e) of synaptic blockers. The duration of light stimulation (20 and 200 ms, respectively) is indicated as a shaded area (wavelength 470 nm, light power density of 20 mW/mm^2). (d, f) Quantification of the hyperpolarization (left) and depolarization (right) peak in primary neurons exposed to DMSO or Ziapin 2 in the absence (d) or presence (f) of synaptic blockers and subjected to 20 or 200 ms of light stimulation.
FIG. 7: modulation of membrane capacitance and conductance in primary neurons following light stimulation. Representative traces of capacity (a) and conductance (b) recorded in current-clamp from primary neurons incubated with 0.25% (v/v) DMSO (Ctrl; black line) or 5 μM Ziapin 2 in DMSO (gray line) in the presence of synaptic and photostimulated blockers with 20 ms (left) or 200 ms (right) (wavelength 470 nm, light power density of 20 mW/mm^2, shaded areas). (c, d) Quantification of peak capacity (c) and conductance (d) variations evoked by light stimuli of 20 and 200 ms.
FIG. 8: effect of Ziapin 1 on passive and active membrane properties in primary hippocampal neurons. […] (a) Quantification of hyperpolarization (left) and depolarization (right) in response to light stimulation for 20/200 ms. […]

primary neurons [3] = experiment: Compound localization testing by confocal microscopy (Cell Mask, Vybrant markers); type: cell-based; settings: for coverage of the cell surface / fraction of compound located in plasma membranes and in lipid rafts: primary neurons, confocal microscopy
Text: FIG. 4: confocal microscopy images showing the localization of the Ziapin 2 molecule in the vicinity of the plasma membranes (a) and in the lipid rafts (b) of primary neurons.
FIG. 5: confocal microscopy images showing the localization of the Ziapin 1 molecule in the vicinity of the plasma membranes (a) and in the lipid rafts (b) of primary neurons.
Molecules tend to localize in cell membranes and change their conformation. […] The targeting of both molecules at the plasma membrane level was analyzed in cultures of primary neurons using specific markers for the cell membrane (Cell Mask, FIG. 4a, FIG. 5a, respectively) or for lipid rafts, membrane areas rich in cholesterol and ion channels (Vybrant, FIG. 4b, FIG. 5b, respectively).

somatosensory cortex = experiment: Cortical responses evoked by light in vivo (LFP recordings after stereotaxic injection); set-up: species or system mice
Method: FIG. 9: cortical responses evoked by light in vivo in the somatosensory cortex of mice exposed to Ziapin 2. (a) Schematic representation of the stereotaxic injection of Ziapin 2 (200 mM in 1 μl of 10% DMSO) in the somatosensory cortex (S1ShNc, 2 mm anterior to lambda, 2 mm lateral to the midline and −723 μm ventral to the brain surface) and of the 16-fiber optic coupled microelectrode system for photostimulation and field potential recordings (LFP). (b) Representative LFP recordings evoked in the somatosensory cortex with light stimulation of 20 and 200 ms (43 mW/mm^2) in mice injected with DMSO (black line) or Ziapin 2 (gray line). The shaded areas represent light stimulation. (c) Dose-response analysis of LFPs in mice injected with DMSO (black line) or Ziapin 2 (gray line) depending on the power and duration of photostimulation.
The objective was to investigate whether the light-dependent modulation of neuronal activity observed in vitro occurred also in vivo. The electrophysiological recordings were obtained by implanting an array of 16 microelectrodes coupled to an optical fiber for photostimulation. […] The response peaked at around 200 ms following the light stimulus (FIGS. 9c and d).

HEK293 cells = experiment: Time-dependent fluorescence photo-switching dynamics in living HEK293 cells; type: cell-based
Method: FIG. 1: (a) scheme of the isomerization process of a compound according to the present invention. Absorption (b) and emission (c) spectra of the compound Ziapin 2 25 μM in DMSO. (d) photoswitching dynamics of Ziapin 2 in water, DMSO and in HEK293 cells. (e, f) absorption and photoluminescence of Ziapin 1 25 μM in DMSO (e) and evolution of the absorption peak at 470 nm by illuminating with a diode at 450 nm (f).
as §1

Row | Structure (SMILES) | trans-cis isomerization reaction in UV-Vis absorption spectra ([1]; 470 nm, FIG. 18) | modulation of passive and active membrane properties following light stimulation (primary neurons [2]; compared with Ziapin 2) | coverage of the cell surface (primary neurons [3]) | fraction of compound located in plasma membranes and in lipid rafts (primary neurons [3]) | diameter of the area of diffusion and absorption of the molecule by cortical cells (somatosensory cortex; 1 μl in the somatosensory cortex, fluorescence analysis) | time of response peak following the light stimulus (somatosensory cortex; LFP, somatosensory cortex) | LFP changes with respect to DMSO alone (somatosensory cortex; absence of the light stimulus and highest power used (160 mW/mm^2)) | LFP response compared with DMSO (somatosensory cortex; higher power densities) | cortical activity evaluated in terms of field potentials (LFP) (somatosensory cortex; optical stimulation 20 and 200 ms, 472 nm laser, different intensities) | LFP response compared with animals treated with DMSO (somatosensory cortex; stimulations at 25 and 43 mW/mm^2, 20 ms illumination) | strong absorption peak ([1]; in DMSO, E isomer, transition n→Π*) [nm] | absorption peak ([1]; in DMSO, E isomer, transition Π→Π*) [nm] | estimated isomerization degree (HEK293 cells) [cm^2J^−1] | estimated relaxation degree (HEK293 cells) [s⁻¹] | membrane potential response to the light stimulus (primary neurons [2]; 20 or 200 ms light) | capacity and conductivity of the membrane under light stimulation compared to the values in the dark (primary neurons [2]; synaptic blockers) | localization at the lipid rafts, Ziapin 2 compared with Ziapin 1 (primary neurons [3]; primary neuron cultures exposed to compound)
1 | O=[N+]([O-])c1ccc(N=Nc2ccc(NCCCCCC[n+]3ccccc3)cc2)cc1 [NO2/1C6Py] | not observed | – | – | – | – | – | – | – | – | – | – | – | – | – | – | – | –
2 | c1cc[n+](CCCCCCNc2ccc(N=Nc3ccc(N4CCCCCC4)cc3)cc2)cc1 [Ziapin 1] | – | lower modulation effect | about 20% | less than 50% | – | – | – | – | – | – | – | – | – | – | – | – | –
3 | c1cc[n+](CCCCCCN(CCCCCC[n+]2ccccc2)c2ccc(N=Nc3ccc(N4CCCCCC4)cc3)cc2)cc1 [Ziapin 2] | – | – | about 20% | about 70% | about 1 mm | around 200 ms | No significant changes | significantly higher | significant activation | significantly different | 470 | 330 | 0.01 | 0.0085 | hyperpolarization is followed by a depolarization | significant decrease | considerably more marked
